From ChEMBL document CHEMBL5724914, “Linking interpersonal differences in gut microbiota composition and drug biotransformation activity” (2024)

Assay: (§1) The drug is tested on Z-013 corresponding to rabbit gut metagenome with ENA study accession number: PRJEB37062 and ENA sample accession number: ERS12561813 for biotransformation under anaerobic condition. The drug concentrations were measured over 9 timepoints collected between 0 and 24 hours of incubation by liquid-chromatography-coupled mass spectrometry (LC–MS)
Conditions: 2 µM
Further: call rule not given here.

Bacterial Biotransformation | Structure (SMILES)
Compound NOT metabolized | CC(C)NCC(O)COc1ccc(CC(N)=O)cc1 (stereo not given) [ATENOLOL]
Compound metabolized | CC(=O)OCC(=O)[C@@]1(OC(C)=O)[C@@H](C)C[C@H]2[C@@H]3C[C@H](F)C4=CC(=O)C=C[C@]4(C)[C@@]3(F)[C@@H](O)C[C@@]21C [DIFLORASONE DIACETATE]

Conditions: human gut metagenome, 24 h, 2 µM

Bacterial Biotransformation | Structure (SMILES)
Compound NOT metabolized | CC(C)NCC(O)COc1ccc(CC(N)=O)cc1 (stereo not given) [ATENOLOL]
Compound metabolized | CC(=O)OCC(=O)[C@@]1(OC(C)=O)[C@@H](C)C[C@H]2[C@@H]3C[C@H](F)C4=CC(=O)C=C[C@]4(C)[C@@]3(F)[C@@H](O)C[C@@]21C [DIFLORASONE DIACETATE]

Conditions: human gut metagenome, 24 h, 2 µM
Remark: another data set of the same source

Bacterial Biotransformation | Structure (SMILES)
Compound NOT metabolized | CC(C)NCC(O)COc1ccc(CC(N)=O)cc1 (stereo not given) [ATENOLOL]
Compound metabolized | CC(=O)OCC(=O)[C@@]1(OC(C)=O)[C@@H](C)C[C@H]2[C@@H]3C[C@H](F)C4=CC(=O)C=C[C@]4(C)[C@@]3(F)[C@@H](O)C[C@@]21C [DIFLORASONE DIACETATE]

Conditions: human gut metagenome, 24 h, 2 µM
Remark: another data set of the same source

Bacterial Biotransformation | Structure (SMILES)
Compound NOT metabolized | CC(C)NCC(O)COc1ccc(CC(N)=O)cc1 (stereo not given) [ATENOLOL]
Compound metabolized | CC(=O)OCC(=O)[C@@]1(OC(C)=O)[C@@H](C)C[C@H]2[C@@H]3C[C@H](F)C4=CC(=O)C=C[C@]4(C)[C@@]3(F)[C@@H](O)C[C@@]21C [DIFLORASONE DIACETATE]

Conditions: human gut metagenome, 24 h, 2 µM
Remark: another data set of the same source

Bacterial Biotransformation | Structure (SMILES)
Compound NOT metabolized | CC(C)NCC(O)COc1ccc(CC(N)=O)cc1 (stereo not given) [ATENOLOL]
Compound metabolized | CC(=O)OCC(=O)[C@@]1(OC(C)=O)[C@@H](C)C[C@H]2[C@@H]3C[C@H](F)C4=CC(=O)C=C[C@]4(C)[C@@]3(F)[C@@H](O)C[C@@]21C [DIFLORASONE DIACETATE]

Assay: as §1, with “Z-024” for “Z-013”, “pig” for “rabbit”, “ERS12561823” for “ERS12561813”
Conditions: 2 µM

Bacterial Biotransformation | Structure (SMILES)
Compound NOT metabolized | CC(C)NCC(O)COc1ccc(CC(N)=O)cc1 (stereo not given) [ATENOLOL]
Compound NOT metabolized | CC(=O)OCC(=O)[C@@]1(OC(C)=O)[C@@H](C)C[C@H]2[C@@H]3C[C@H](F)C4=CC(=O)C=C[C@]4(C)[C@@]3(F)[C@@H](O)C[C@@]21C [DIFLORASONE DIACETATE]

Assay: as §1, with “Z-026” for “Z-013”, “to” for “to rabbit gut”, “ERS12561825” for “ERS12561813”
Conditions: 2 µM

Bacterial Biotransformation | Structure (SMILES)
Compound NOT metabolized | CC(C)NCC(O)COc1ccc(CC(N)=O)cc1 (stereo not given) [ATENOLOL]
Compound NOT metabolized | CC(=O)OCC(=O)[C@@]1(OC(C)=O)[C@@H](C)C[C@H]2[C@@H]3C[C@H](F)C4=CC(=O)C=C[C@]4(C)[C@@]3(F)[C@@H](O)C[C@@]21C [DIFLORASONE DIACETATE]

Assay: as §1, with “Z-021” for “Z-013”, “to” for “to rabbit gut”, “ERS12561820” for “ERS12561813”
Conditions: 2 µM

Bacterial Biotransformation | Structure (SMILES)
Compound NOT metabolized | CC(C)NCC(O)COc1ccc(CC(N)=O)cc1 (stereo not given) [ATENOLOL]
Compound metabolized | CC(=O)OCC(=O)[C@@]1(OC(C)=O)[C@@H](C)C[C@H]2[C@@H]3C[C@H](F)C4=CC(=O)C=C[C@]4(C)[C@@]3(F)[C@@H](O)C[C@@]21C [DIFLORASONE DIACETATE]

Conditions: human gut metagenome, 24 h, 2 µM
Remark: another data set of the same source

Bacterial Biotransformation | Structure (SMILES)
Compound NOT metabolized | CC(C)NCC(O)COc1ccc(CC(N)=O)cc1 (stereo not given) [ATENOLOL]
Compound metabolized | CC(=O)OCC(=O)[C@@]1(OC(C)=O)[C@@H](C)C[C@H]2[C@@H]3C[C@H](F)C4=CC(=O)C=C[C@]4(C)[C@@]3(F)[C@@H](O)C[C@@]21C [DIFLORASONE DIACETATE]

Conditions: human gut metagenome, 24 h, 2 µM
Remark: another data set of the same source

Bacterial Biotransformation | Structure (SMILES)
Compound NOT metabolized | CC(C)NCC(O)COc1ccc(CC(N)=O)cc1 (stereo not given) [ATENOLOL]
Compound metabolized | CC(=O)OCC(=O)[C@@]1(OC(C)=O)[C@@H](C)C[C@H]2[C@@H]3C[C@H](F)C4=CC(=O)C=C[C@]4(C)[C@@]3(F)[C@@H](O)C[C@@]21C [DIFLORASONE DIACETATE]

Conditions: human gut metagenome, 24 h, 2 µM
Remark: another data set of the same source

Bacterial Biotransformation | Structure (SMILES)
Compound metabolized | CC(C)NCC(O)COc1ccc(CC(N)=O)cc1 (stereo not given) [ATENOLOL]
Compound metabolized | CC(=O)OCC(=O)[C@@]1(OC(C)=O)[C@@H](C)C[C@H]2[C@@H]3C[C@H](F)C4=CC(=O)C=C[C@]4(C)[C@@]3(F)[C@@H](O)C[C@@]21C [DIFLORASONE DIACETATE]

Assay: as §1, with “Z-023” for “Z-013”, “to” for “to rabbit gut”, “ERS12561822” for “ERS12561813”
Conditions: 2 µM

Bacterial Biotransformation | Structure (SMILES)
Compound NOT metabolized | CC(C)NCC(O)COc1ccc(CC(N)=O)cc1 (stereo not given) [ATENOLOL]
Compound NOT metabolized | CC(=O)OCC(=O)[C@@]1(OC(C)=O)[C@@H](C)C[C@H]2[C@@H]3C[C@H](F)C4=CC(=O)C=C[C@]4(C)[C@@]3(F)[C@@H](O)C[C@@]21C [DIFLORASONE DIACETATE]

Assay: as §1, with “Z-016” for “Z-013”, “mouse” for “rabbit”, “ERS12561815” for “ERS12561813”
Conditions: 2 µM

Bacterial Biotransformation | Structure (SMILES)
Compound NOT metabolized | CC(C)NCC(O)COc1ccc(CC(N)=O)cc1 (stereo not given) [ATENOLOL]
Compound metabolized | CC(=O)OCC(=O)[C@@]1(OC(C)=O)[C@@H](C)C[C@H]2[C@@H]3C[C@H](F)C4=CC(=O)C=C[C@]4(C)[C@@]3(F)[C@@H](O)C[C@@]21C [DIFLORASONE DIACETATE]

Conditions: human gut metagenome, 24 h, 2 µM
Remark: another data set of the same source

Bacterial Biotransformation | Structure (SMILES)
Compound NOT metabolized | CC(C)NCC(O)COc1ccc(CC(N)=O)cc1 (stereo not given) [ATENOLOL]
Compound metabolized | CC(=O)OCC(=O)[C@@]1(OC(C)=O)[C@@H](C)C[C@H]2[C@@H]3C[C@H](F)C4=CC(=O)C=C[C@]4(C)[C@@]3(F)[C@@H](O)C[C@@]21C [DIFLORASONE DIACETATE]

Conditions: human gut metagenome, 24 h, 2 µM
Remark: another data set of the same source

Bacterial Biotransformation | Structure (SMILES)
Compound NOT metabolized | CC(C)NCC(O)COc1ccc(CC(N)=O)cc1 (stereo not given) [ATENOLOL]
Compound metabolized | CC(=O)OCC(=O)[C@@]1(OC(C)=O)[C@@H](C)C[C@H]2[C@@H]3C[C@H](F)C4=CC(=O)C=C[C@]4(C)[C@@]3(F)[C@@H](O)C[C@@]21C [DIFLORASONE DIACETATE]

Assay: as §1, with “WLS-073” for “Z-013”, “human” for “rabbit”, “ERS12561749” for “ERS12561813”
Conditions: 2 µM

Bacterial Biotransformation | Structure (SMILES)
Compound NOT metabolized | CC(C)NCC(O)COc1ccc(CC(N)=O)cc1 (stereo not given) [ATENOLOL]
Compound metabolized | CC(=O)OCC(=O)[C@@]1(OC(C)=O)[C@@H](C)C[C@H]2[C@@H]3C[C@H](F)C4=CC(=O)C=C[C@]4(C)[C@@]3(F)[C@@H](O)C[C@@]21C [DIFLORASONE DIACETATE]

Assay: as §1, with “WLS-090” for “Z-013”, “human” for “rabbit”, “ERS12561753” for “ERS12561813”
Conditions: 2 µM

Bacterial Biotransformation | Structure (SMILES)
Compound metabolized | CC(C)NCC(O)COc1ccc(CC(N)=O)cc1 (stereo not given) [ATENOLOL]
Compound metabolized | CC(=O)OCC(=O)[C@@]1(OC(C)=O)[C@@H](C)C[C@H]2[C@@H]3C[C@H](F)C4=CC(=O)C=C[C@]4(C)[C@@]3(F)[C@@H](O)C[C@@]21C [DIFLORASONE DIACETATE]

Assay: as §1, with “Z-003” for “Z-013”, “pig” for “rabbit”, “ERS12561803” for “ERS12561813”
Conditions: 2 µM

Bacterial Biotransformation | Structure (SMILES)
Compound NOT metabolized | CC(C)NCC(O)COc1ccc(CC(N)=O)cc1 (stereo not given) [ATENOLOL]
Compound NOT metabolized | CC(=O)OCC(=O)[C@@]1(OC(C)=O)[C@@H](C)C[C@H]2[C@@H]3C[C@H](F)C4=CC(=O)C=C[C@]4(C)[C@@]3(F)[C@@H](O)C[C@@]21C [DIFLORASONE DIACETATE]

Assay: as §1, with “Z-008” for “Z-013”, “to” for “to rabbit gut”, “ERS12561808” for “ERS12561813”
Conditions: 2 µM

Bacterial Biotransformation | Structure (SMILES)
Compound NOT metabolized | CC(C)NCC(O)COc1ccc(CC(N)=O)cc1 (stereo not given) [ATENOLOL]
Compound metabolized | CC(=O)OCC(=O)[C@@]1(OC(C)=O)[C@@H](C)C[C@H]2[C@@H]3C[C@H](F)C4=CC(=O)C=C[C@]4(C)[C@@]3(F)[C@@H](O)C[C@@]21C [DIFLORASONE DIACETATE]

Assay: as §1, with “Z-009” for “Z-013”, “pig” for “rabbit”, “ERS12561809” for “ERS12561813”
Conditions: 2 µM

Bacterial Biotransformation | Structure (SMILES)
Compound NOT metabolized | CC(C)NCC(O)COc1ccc(CC(N)=O)cc1 (stereo not given) [ATENOLOL]
Compound metabolized | CC(=O)OCC(=O)[C@@]1(OC(C)=O)[C@@H](C)C[C@H]2[C@@H]3C[C@H](F)C4=CC(=O)C=C[C@]4(C)[C@@]3(F)[C@@H](O)C[C@@]21C [DIFLORASONE DIACETATE]
